As a reminder, the CC50 is the concentration at which the toxic effect on the cells reaches its halfway point. As a reminder, the EC50 is the concentration needed to bring the measured effect to its halfway point.

Each structure is given as a SMILES string. Some results are limits rather than exact numbers.

Three molecules from US20070269420A1, “Compounds, Compositions and Methods for Treatment and Prophylaxis of Hepatitis C Viral Infections and Associated Diseases” (priority 2003, published 2007) can be followed below.

Series [1] is described as follows: Crystal Violet cellular toxicity in wild type replicon cells. Type of series: cell-based. To be noted: human. As for the experimental part:
(§1) Huh-7 cells (harboring no replicon) and wild type replicon cells were seeded onto a 96 well plate. All cells were subjected to increasing amounts of a representative compound of the invention, as described in the replicon ELISA protocol. In order to assess the cellular toxicity of a compound of Formula I in both Huh-7 cells (harboring no replicon) and wild type replicon, cells were stained with Crystal Violet (a nonspecific protein stain) after 72 hours. The […] values for cells lacking replicon were generally >100.0 μM in parental Huh-7 cells for each compound. […] In this case the cells' natural defenses are strengthened and apoptosis, a natural defense to viral infection, occurs. The Huh-7 cell line is the parental cell line harboring no HCV subgenomic replicon. In this cell line, the toxicity is reduced due to the fact that there is no NS4B for the compound to bind. If the cellular toxicity in cells comprising HCV replicons and in the parental Huh-7 cell line (no replicon) are the same, then they are effective in inhibiting HCV replication rather than the modulation of apoptosis.
(§2) During drug screening efforts to identify compounds having binding affinity for HCV NS4B, the triazinoindole class of compounds of Formula VII was identified. […] However a cellular toxicity (CC50) of 20 μM was also found. […]
In general terms: A replicon is a self-replicating genome or part of one, used to study replication in cells.

Series [2] has as its system HCV replicon (BB7 sequence) in Huh-7-Clone A cells. The series can be described thus: HCV replicon NS5A ELISA, inhibition of viral RNA replication. Type of series: cell-based, hepatitis C virus. To be noted: for activity against HCV-replicon: measured by Elisa and quantitative RT-PCR, Clone-A cells. Here is the method: Antiviral activity of representative compounds of the invention was evaluated in a human liver-derived cell line (Huh-7-Clone A) containing the HCV replicon (BB7 sequence) (See Lohmann et al. Science. 1999, 285:110-3; Blight K J et al., Science. 2000, 290:1972-4; Pietschmann, T. et al., J. Virol. 2001, 73:1252-1264; and Lohmann, V. et al., J. Virol. 2001, 75:1437-1449). The HCV replicon is a subgenomic viral RNA that expresses the HCV proteins required for its own replication. These proteins include non-structural proteins NS3, NS4A, NS4B, NS5A and NS5B. The replicon also contains a foreign gene encoding a drug-selectable marker (neomycin phosphotransferase) to allow for G418 (neomycin) selection of cells that contain the replicon.
An ELISA (enzyme-linked immunosorbant assay) was used to determine the effect of compounds within the scope of the invention on the amount of HCV NS5A protein produced after a 72-hour incubation of the replicon-containing cells in the presence of varying concentrations of compound. Huh7-Clone A cells were seeded in 96-well plates at a subconfluent density (9000 cells/well) in medium containing 2% FBS and incubated for 4 hours to allow attachment to occur. HCV-086 (solubilized with 100% dimethylsulfoxide [DMSO]) was added to wells using an 8-point, 3-fold serial dilution series, with a final DMSO concentration of 1% in a total volume of 200 μL. Plates were incubated for 72 hours at 37° C. and 5% CO2. Under these conditions, the cells are approximately 25% confluent at the time of seeding and 80-90% confluent on day 3. COSTAR® 96-well cell culture plates were used but other known cell culture plates may be used. After incubation, media is removed from wells and the cells are fixed to the assay plate using 0.05% glutaraldehyde (Fisher # 02957-4). The glutaraldehyde is then washed off using phosphate-buffered saline (PBS) following a 1 hour incubation and cells are blocked for non-specific antibody binding using for example SUPERBLOCK® reagent (blocking buffer) in PBS. The blocking agent is rinsed from the cells with PBS after 1 hour at 37° C., and HCV NS5A monoclonal antibody (Virostat # 1873) is added to each well containing compound. Primary antibody is incubated for 1 hour at 37° C. and rinsed 3 times with PBS containing 0.02% TWEEN-20™ before addition of Horseradish Peroxidase (HRP) conjugated secondary antibody. HRP is incubated for 1 hour at 37° C. and rinsed several times, first with PBS/TWEEN-20™ followed by PBS alone. To quantify peroxidase activity, 3,3′,5,5′-tetramethylbenzidine (TMB) substrate is added to the plate and after 30 minutes, the plates are read in an ELISA plate reader at an OD of 650 nm.
Compound dose response was measured in an 8-point dose curve diluted serially to determine the inhibitory concentration at 50% (EC50 value). […] Ranges of 50% effective concentrations (EC50s) for the representative compounds within the scope of this invention are listed in Tables 1-8. Preferred compounds have 50% effective concentrations at about 30 μM or less, more preferred compounds have 50% effective concentrations at about 5 μM or less, and most preferred compounds have 50% effective concentrations at about 0.5 μM or less.

Series [3] can be described thus: Crystal Violet cellular toxicity in parental cells harboring no replicon. It is filed as cell-based. To be noted: human, parental Huh-7 cells (harboring no replicon), 72-hour period, parental Huh-7 cells lacking replicon. As for the experimental part:
as §1, §2

Series [4] deals with genotype 1b (BB7 isolate) replicon-containing cells. Description: Selection of replicon variants under test compound. To be noted: cell line passaged in the presence of 5 μM test compound for 7 passages. Type of series: cell-based, hepatitis C virus. Here is the method: To select for replicon variants, genotype 1b (BB7 isolate) replicon-containing cells were cultured and in the presence of 5 μM of the test compound for 7 passages. As a control, genotype 1b (BB7 isolate) replicon-containing cells were passaged in parallel, without the test compound. […] Total cellular RNA was extracted from both cell lines using Trizol Reagent (Invitrogen #15596-026) according to the manufacturer's protocol. NS5B cDNA was generated in a two-step RT-PCR reaction. PCR products were ligated into pPCR-Script Amp SK (+) (Stratagene #211188), transformed into E. coli, and sequenced.
The changes are as follows: K52R, G120V and A210S.

Series [5] concerns Clone-A cells. The series can be described thus: Crystal violet qualitative cell proliferation assay, 5 day incubation, Clone-A. It is filed as cell-based, human. To be noted: crystal violet staining. As for the experimental part:
(§3) The cellular toxicity of Compound A at different concentrations was assessed on different cell lines following crystal violet staining (qualitative cell proliferation assay) after 5 day incubation. Huh7 cells are human hepatoma cells. A genotype 1b replicon-containing cell line derived from Huh7 cells (Clone-A) was obtained from Apath, LLC. Clone-A cells were selected under Compound B drug pressure and a resistant clone was selected (559^R) which contained mutations in NS4B gene.

For another series, the system named is 559^R cells. The series can be described thus: Crystal violet qualitative cell proliferation assay, 5 day incubation, resistant clone. Type of series: cell-based, human. To be noted: crystal violet staining. As for the experimental part: as §3
A further series has as its system Huh-7 cells. It is filed as cell-based. To be noted: human, 5 day. As for the experimental part:
as §3

In a further series the target is T1, HCV NS4B (Hepatitis C virus genotype 1b, UniProt Q9WMX2).
T1 construct: NS4B was cloned, expressed and purified to establish an assay; made in house
Description: NS4B binding assay (quenching of intrinsic protein fluorescence). To be noted: fluorescent binding assay. The source says:
NS4B was cloned, expressed and purified to establish an assay, which takes advantage of the intrinsic fluorescent properties of proteins and identifies compounds, which inhibit by a NS4B specific mechanism. This protein is necessary for viral replication. It is thought to act as an anchor securing the replication complex to cellular membranes, where replication is known to occur. Several other functions necessary for viral replication have also ascribed to NS4B.

For series [6], the system named is Clone-A cells. The series can be described thus: Genomic DNA fragmentation by agarose gel electrophoresis. Type of series: cell-based, human. To be noted: Huh7, Clone-A and 559^R treated. Here is the method:
DNA fragmentation is a measure of apoptotic cell death. Huh7, Clone-A and 559^R were treated with Compound B and genomic DNA fragmentation determined by agarose gel electrophoresis.

Take `CCCCc1c(C)nn(-c2nnc3c4ccccc4n(CC)c3n2)c1C` [Example 1]: in series [1] (HCV subgenomic replicon cells, found alongside EC50 in the HCV subgenomic replicon system), it took 20 µM to reach half-maximal cytotoxicity (CC50). Moreover, the CC50 at 72 h in [1] (Crystal Violet, 72-hour period, cells containing wild type replicons) was 20 µM; in series [3], > 100 µM. The EC50 in series [2] (Hepatitis C virus, measured using the HCV subgenomic replicon system, read-out: EC50) was 1.2 µM. Moreover, the “reduced susceptibility to the compound” value in series [4] is “over 10 fold”.

`Cc1nn(-c2nnc3c4ccccc4n(C)c3n2)c(C)c1-c1ccccc1` [Compound A, 2-(3,5-dimethyl-4-phenyl-pyrazol-1-yl)-9-methyl-9H-1,3,4,9-tetraaza-fluorene]: the cellular toxicity with Clone-A cells [5] is ~3 µM; in the series on 559^R cells, ~30 µM; with Huh-7 cells it was ~30 µM. Further, the “activity against HCV-replicon” value in series [2] is “demonstrated activity”. Besides, at HCV NS4B, the “binding activity towards purified HCV NS4B” value is “demonstrated binding activity”.

With `CCCCc1c(C)nn(-c2nnc3c4ccccc4n(CC)c3n2)c1C` [Compound B, 2-(4-butyl-3,5-dimethyl-pyrazol-1-yl)-9-ethyl-9H-1,3,4,9-tetraaza-fluorene], the “genomic DNA fragmentation (apoptose)” value in the series with Clone-A cells [6] is recorded as “cause DNA fragmentation (apoptose) in Clone-A cells only”. For the same molecule, the “activity against HCV-replicon” value in series [2] is recorded as “demonstrated activity”. In addition, the “binding activity towards purified HCV NS4B” value on HCV NS4B is “demonstrated binding activity”.
